Test results from ChEMBL document CHEMBL1201862, “PubChem BioAssay data set” (2004).
The source made the active and inactive calls.

Experiments:
Streptokinase A = target: T1, Streptokinase A (Streptococcus pyogenes serotype M1, UniProt P10520); experiment: S. pyogenes streptokinase expression inhibitors, potency, dose response, plasminogen activation absorbance, OD405 (AID 1914); format: functional, Streptococcus pyogenes M1 GAS;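 also: secreted streptokinase activity via plasminogen activation per viability signal from cell pellet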
T1 sequence (P10520 whole entry): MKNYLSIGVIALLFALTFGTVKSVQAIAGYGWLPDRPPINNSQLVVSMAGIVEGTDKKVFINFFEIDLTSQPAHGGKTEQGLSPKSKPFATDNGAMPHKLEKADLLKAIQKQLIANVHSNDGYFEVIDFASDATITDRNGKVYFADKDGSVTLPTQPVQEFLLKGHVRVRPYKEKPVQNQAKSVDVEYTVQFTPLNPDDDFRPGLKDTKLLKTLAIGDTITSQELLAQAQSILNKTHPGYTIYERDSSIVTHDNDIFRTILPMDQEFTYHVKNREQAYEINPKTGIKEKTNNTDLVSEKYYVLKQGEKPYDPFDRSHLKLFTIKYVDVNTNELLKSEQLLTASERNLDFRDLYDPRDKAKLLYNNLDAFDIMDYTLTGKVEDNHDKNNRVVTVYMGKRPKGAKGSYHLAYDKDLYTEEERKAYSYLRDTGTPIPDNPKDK

Streptococcus = experiment: Group A Streptococcus viability loss, dose response, counter-screen for streptokinase expression inhibitor project, luminescence, BacTiterGlo (AID 1915); format: functional, organism-based;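 also: potency for reduction of bacterial viability or growth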
[1] = insulin promoter down-regulators in MIN6 cells, imaging, high-content screening, mouse beta cells (AID 1628); format: functional
[2] = Luminescence Cell-Based Dose Retest to Confirm Inhibitors of Cancer Stem Cells. [Related pubchem assays (depositor defined):AID2717, AID2721]; format: functional; settings: Homo sapiens
[3] = system: Streptococcus sp. 'group A'; experiment: growth inhibition of control SK(-) GAS strain, dose response, counter-screen for streptokinase expression inhibitor project, luminescence, kanamycin, BacTiterGlo, confirmation (AID 1900); format: functional, organism-based
Vero [4] = experiment: host cell cytotoxicity of antiviral hits, dose response, cytotoxicity control for West Nile virus antiviral project, secondary assay (AID 1650); format: functional; settings: Chlorocebus sabaeus
[5] = cytotoxicity in MIN6 insulinoma cells, dose response, cytotoxicity control, cell-based, mouse insulinoma (AID 2122); format: functional;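 also: confirmatory high-throughput counterscreen run to flag cytotoxic compounds; mouse MIN-6 beta cells carrying an insulin promoter eGFP reporter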
[6] = target: T2, Corticotropin-releasing factor receptor 2/Corticotropin-releasing factor-binding protein (Homo sapiens, UniProt P24387+Q13324); experiment: activators of CRF receptor 2 with binding protein – uHTS hits, confirmation (AID 602473); format: functional; settings: read-out: EC50_Mean
T2 sequence (Q13324 whole entry): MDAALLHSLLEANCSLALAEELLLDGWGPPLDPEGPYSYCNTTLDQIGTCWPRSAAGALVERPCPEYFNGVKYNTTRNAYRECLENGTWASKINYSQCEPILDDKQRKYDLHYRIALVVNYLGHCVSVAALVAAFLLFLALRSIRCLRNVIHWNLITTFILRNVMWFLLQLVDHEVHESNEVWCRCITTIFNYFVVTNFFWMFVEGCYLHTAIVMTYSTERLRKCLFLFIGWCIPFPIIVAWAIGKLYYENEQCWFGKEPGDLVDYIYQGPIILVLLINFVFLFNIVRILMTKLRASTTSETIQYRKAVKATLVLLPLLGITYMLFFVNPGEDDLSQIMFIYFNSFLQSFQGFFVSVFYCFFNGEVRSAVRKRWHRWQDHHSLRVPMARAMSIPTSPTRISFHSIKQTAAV
T2 sequence (P24387 whole entry): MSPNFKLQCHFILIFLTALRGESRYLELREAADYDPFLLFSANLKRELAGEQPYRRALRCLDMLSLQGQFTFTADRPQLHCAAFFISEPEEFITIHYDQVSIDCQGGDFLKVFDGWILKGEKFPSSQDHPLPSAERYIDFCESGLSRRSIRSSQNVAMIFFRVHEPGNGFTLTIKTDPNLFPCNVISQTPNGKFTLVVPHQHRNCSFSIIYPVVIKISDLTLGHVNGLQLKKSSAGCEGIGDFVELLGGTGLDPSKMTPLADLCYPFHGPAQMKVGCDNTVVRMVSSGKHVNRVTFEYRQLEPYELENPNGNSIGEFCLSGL

Vero [7] = experiment: cells; format: functional; settings: Chlorocebus sabaeus
[8] = target: T2, Corticotropin-releasing factor receptor 2/Corticotropin-releasing factor-binding protein; experiment: Dose Response confirmation of uHTS hits for small molecule antagonists of the CRF-binding protein and CRF-R2 receptor complex.; format: functional; settings: read-out: IC50_Mean
BJ [9] = experiment: cells; format: functional, cell-based; settings: Homo sapiens
Vero [10] = experiment: cells; format: functional, cell-based; settings: Chlorocebus sabaeus
BJ [11] = experiment: cytotoxicity toward BJ-TERT-LT-ST fibroblasts, dose response, cell-based, RAS-independent, luminescence (AID 1935); format: functional; settings: Homo sapiens;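 also: BJ fibroblasts immortalized with TERT plus LT and ST oncogenes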
[12] = cytotoxicity toward DRD oncogenic fibroblasts, dose response, cell-based, non-viral oncogenic, luminescence (AID 1934); format: functional; settings: Homo sapiens
BJ [13] = experiment: cytotoxicity toward BJ-TERT fibroblasts, dose response, cell-based, RAS-independent, luminescence (AID 1933); format: functional; settings: Homo sapiens
Bcl-2-related protein A1 = target: T3, Bcl-2-related protein A1 (Mus musculus, UniProt Q07440); format: functional;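 also: confirmatory dose–response counterscreen on Bfl-1, used to check hits from a UBC13 polyubiquitin inhibitor campaign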
T3 sequence (Q07440 whole entry): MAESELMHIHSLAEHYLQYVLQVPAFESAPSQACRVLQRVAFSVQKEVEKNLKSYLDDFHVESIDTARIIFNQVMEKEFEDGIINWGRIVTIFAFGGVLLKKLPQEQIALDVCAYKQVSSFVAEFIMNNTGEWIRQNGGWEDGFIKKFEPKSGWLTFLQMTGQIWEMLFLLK

[14] = target: T4, Long-chain-fatty-acid--AMP ligase FadD28 (Mycobacterium tuberculosis, UniProt P9WQ59); experiment: Fluorescence polarization aasay to screen for inhibitors that compete for the binding of FadD28 to a bisubstrate Measured in Biochemical System Using Plate Reader - 2147-01_Inhibitor_Dose_CherryPick_Activity.; format: functional, Mycobacterium tuberculosis H37Rv
T4 sequence (P9WQ59 whole entry): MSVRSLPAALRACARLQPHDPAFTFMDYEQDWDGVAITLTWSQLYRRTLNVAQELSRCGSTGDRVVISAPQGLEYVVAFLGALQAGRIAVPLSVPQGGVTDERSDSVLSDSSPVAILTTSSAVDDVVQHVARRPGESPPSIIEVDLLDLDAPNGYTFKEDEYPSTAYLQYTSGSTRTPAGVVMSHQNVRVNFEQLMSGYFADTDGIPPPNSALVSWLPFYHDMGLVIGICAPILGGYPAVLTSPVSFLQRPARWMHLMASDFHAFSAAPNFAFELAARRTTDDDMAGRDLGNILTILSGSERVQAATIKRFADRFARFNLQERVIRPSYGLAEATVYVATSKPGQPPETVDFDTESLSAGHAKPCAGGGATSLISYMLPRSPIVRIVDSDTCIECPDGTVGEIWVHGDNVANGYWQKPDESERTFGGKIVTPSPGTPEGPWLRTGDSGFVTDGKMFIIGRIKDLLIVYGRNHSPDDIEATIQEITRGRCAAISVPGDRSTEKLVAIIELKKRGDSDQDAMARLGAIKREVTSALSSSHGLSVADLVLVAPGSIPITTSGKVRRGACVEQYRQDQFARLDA

[15] = target: T5, Ubiquitin-conjugating enzyme E2 N (Homo sapiens, UniProt P61088); format: functional
T5 sequence (P61088 whole entry): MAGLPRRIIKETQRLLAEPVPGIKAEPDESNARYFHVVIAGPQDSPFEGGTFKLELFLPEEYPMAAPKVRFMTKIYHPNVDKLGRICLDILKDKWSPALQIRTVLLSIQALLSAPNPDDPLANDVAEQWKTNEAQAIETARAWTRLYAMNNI

[16] = growth suppression of beta-catenin-knockout colon cells, dose response, cell-based, HCT116, human colon tumor (AID 1045); format: functional;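 also: HCT116 colon tumor cells with beta catenin knocked out; cells exposed to compound for 60 hours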
[17] = target: T5, Ubiquitin-conjugating enzyme E2 N; format: functional; remark: listed apart in the source
[18] = cytotoxicity in HPDE-C7 cells, cell-based, fluorescence, HTS (AID 430); format: functional; settings: Homo sapiens
[19] = cytotoxicity in KRAS-transformed pancreatic duct cells, primary screen, cell-based, fluorescence, HTS (AID 431); format: functional; settings: Homo sapiens;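 also: cell line used: HPDE-C7K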
[20] = growth suppression of PTEN-null colon cells, dose response, cell-based, HCT116 PTEN knockout (AID 1047); format: functional;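 also: HCT116 colon tumor cells with PTEN knocked out; cells exposed to compound for 60 hours before readout; potency for loss of cell viability measured by luminescence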
[21] = Shn3 3'UTR reporter inhibitors, dose response, cell-based, Clone20 osteoblasts, firefly luciferase, cherry-picked (AID 624132); format: functional;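 also: firefly luciferase luminescence from reporter carrying the Shn3 3'UTR in osteoblasts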
[22] = HepG2 cell cytotoxicity, dose response, cytotoxicity control for Shn3 inhibitor project, CellTiter-Glo, cherry-picked (AID 624134); format: functional, cell-based
[23] = control 3'UTR Renilla luciferase suppression, dose response, counter-screen for Shn3 inhibitor project, cell-based, Clone20-Shn3RL, cherry-picked (AID 624133); format: functional
[24] = cytotoxicity toward NIH3T3 fibroblasts, dose response, counter-screen, cell-based, ATP luminescence, mouse fibroblasts (AID 2010); format: functional;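 also: cells exposed to compound for about 90 hours before reading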
[25] = inhibitors of intracellular T. cruzi replication, confirmation, NIH3T3 host cells, beta-gal luminescence (AID 2044); format: functional, cell-based;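 also: intracellular parasites grown in NIH/3T3 mouse fibroblasts as host cells; luminescent beta-galactosidase reporter signal from transgenic T. cruzi replicating inside host cells; inhibitors lower the luminescence signal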
[26] = target: Glucose-6-phosphate 1-dehydrogenase (Homo sapiens, UniProt P11413); experiment: human G6PD enzyme inhibitors, dose response, selectivity assay for P. falciparum G6PD inhibitor project, biochemical, fluorescence (AID 504792); format: functional
Chain of Glucose-6-phosphate 1-dehydrogenase (P11413 whole entry): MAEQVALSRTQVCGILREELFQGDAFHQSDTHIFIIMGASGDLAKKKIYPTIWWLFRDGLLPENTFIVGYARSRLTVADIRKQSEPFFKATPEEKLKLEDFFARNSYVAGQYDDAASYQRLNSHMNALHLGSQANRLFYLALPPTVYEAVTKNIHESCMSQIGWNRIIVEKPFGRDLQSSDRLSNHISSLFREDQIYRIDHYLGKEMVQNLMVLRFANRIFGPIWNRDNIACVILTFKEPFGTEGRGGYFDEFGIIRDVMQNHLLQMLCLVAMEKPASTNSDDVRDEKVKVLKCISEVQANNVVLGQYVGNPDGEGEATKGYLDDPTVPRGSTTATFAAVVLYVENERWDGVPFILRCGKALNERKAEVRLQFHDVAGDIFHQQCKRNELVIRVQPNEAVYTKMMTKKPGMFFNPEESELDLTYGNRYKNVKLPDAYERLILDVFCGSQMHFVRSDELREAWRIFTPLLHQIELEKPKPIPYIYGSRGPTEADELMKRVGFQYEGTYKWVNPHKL

CC(=O)[C@@]1(O)C(C)CC2C3C=C(C)C4=Cc5c(cnn5-c5ccccc5)C[C@]4(C)C3C(O)C[C@@]21C (stereo partly specified)
active: EC50 (Streptokinase A) 2.97 µM | IC50 [1] < 0.25 µM | AC50 [2] 1.15 µM | EC50 [3] 5.57 µM | CC50 (Vero [4]) > 100 µM
inactive: IC50 [5] > 16 µM
> 150 µM (not active): EC50 (Streptococcus)

CN(C)c1ccc(C(=O)N/N=C/C23CC[C@@H](O)CC2(O)CC[C@@H]2[C@@H]3CCC3(C)C(C4=CC(=O)OC4)CCC23O)cc1 (stereo partly specified)
inactive: EC50 [6] > 53 µM | IC50 [8] > 47.1 µM
active: CC50 (Vero [7]) 22 µM | EC50 (BJ [9]) 14.2 µM | IC50 (Vero [10]) > 25 µM | EC50 (BJ [11]) 19 µM | EC50 [12] 3.56 µM | CC50 (Vero [4]) 17.9 µM | EC50 (BJ [13]) 3.63 µM

CCCCCCCCCCCCCCC[C@@H](O)[C@@H](N)CO [DIHYDROSPINGOSINE]
> 150 µM (not active): EC50 (Streptokinase A)
active: AC50 [14] 5.6 µM | IC50 [15] 15.5 µM | EC50 [16] 7.58 µM | EC50 (Streptococcus) 8.91 µM | IC50 [17] 13.4 µM | EC50 [18] 14 µM | EC50 [3] 1.34 µM | IC50 (Vero [10]) > 25 µM | EC50 [19] 9.93 µM | EC50 [20] 8.66 µM
inactive: IC50 (Bcl-2-related protein A1) > 20 µM

CC(C)(C)c1ccc(CN(Cc2ccccc2)C(c2ccccn2)c2nnnn2C(C)(C)C)cc1 (stereo unspecified)
active: AC50 [21] 13.5 µM | AC50 [22] 67.9 µM | AC50 [23] 24.2 µM | IC50 [1] 3.07 µM | IC50 [5] 3.84 µM | EC50 [25] 1.76 µM
> 60 µM (not active): EC50 [24]

CCOc1ccccc1C=NNC(=O)CCCCC(=O)NN=Cc1ccccc1OCC
inactive: IC50 [26] > 80 µM
